From patent US20210315992A1, “ADJUVANT EFFECT OF THE TLR1/2 AGONIST DIPROVOCIM SYNERGIZES WITH CHECKPOINT-INHIBITING ANTIBODIES TO ELIMINATE DISEASE” (The Board of Regents of the University of Texas System, priority 2018, published 2021)
“Also recorded” adds a separate entry of the source.

Key:
[1] = test system: human PBMC; assay: TNF production by human PBMC (ELISA); format: cell-based; details: 24 hours
Experimental: (§1) For murine BMDCs, bone morrow cells were cultured in Petri dishes in 10 ml DMEM cell culture medium containing 10 ng/ml of murine GM-CSF (R&D Systems). On day 3 of culture, this was replaced with fresh GM-CSF medium. Loosely adherent cells were transferred to a fresh Petri dish and cultured for an additional 4 d. Human PBMC were purchased from Stemcell Technologies. THP-1 (ATCC) cells were differentiated by treatment with 100 nM PMA (Sigma) in RPMI cell culture medium [RPMI containing 10% vol/vol FBS (Gemini Bio Products), 1% penicillin and streptomycin (Life Technologies)] for 24 hours. After that, cells were washed with PBS and cultured in fresh RPMI cell culture medium for 24 hours before use in studies.
[…] Mouse TNF, IL-6, or IFN-β, or human TNF in the supernatants were measured by ELISA kits according to the manufacturer's instructions (eBioscience and PBL Assay Science). Pretreatment with 20 μg/ml anti-TLR1, anti-TLR2 or isotype control antibody (eBioscience) was for 1 hour. Unless otherwise indicated, mouse cells were from wild type C57BL/6J mice.

[2] = target: T1, human TLR1/TLR2 (Homo sapiens, UniProt O60603+Q15399); assay: TNF in THP-1 cells pretreated with anti-TLR1 or anti-TLR2 antibody; format: cell-based; details: 250 pM, 4 hours; antibody 20 μg/ml, 1 hour pretreatment
T1 construct: TNF in the supernatants of human THP-1 cells pretreated with control antibody, anti-TLR1 (20 μg/ml), or anti-TLR2 (20 μg/ml); host or cells: THP-1 cells differentiated with 100 nM PMA
T1 sequence (Q15399 25-786): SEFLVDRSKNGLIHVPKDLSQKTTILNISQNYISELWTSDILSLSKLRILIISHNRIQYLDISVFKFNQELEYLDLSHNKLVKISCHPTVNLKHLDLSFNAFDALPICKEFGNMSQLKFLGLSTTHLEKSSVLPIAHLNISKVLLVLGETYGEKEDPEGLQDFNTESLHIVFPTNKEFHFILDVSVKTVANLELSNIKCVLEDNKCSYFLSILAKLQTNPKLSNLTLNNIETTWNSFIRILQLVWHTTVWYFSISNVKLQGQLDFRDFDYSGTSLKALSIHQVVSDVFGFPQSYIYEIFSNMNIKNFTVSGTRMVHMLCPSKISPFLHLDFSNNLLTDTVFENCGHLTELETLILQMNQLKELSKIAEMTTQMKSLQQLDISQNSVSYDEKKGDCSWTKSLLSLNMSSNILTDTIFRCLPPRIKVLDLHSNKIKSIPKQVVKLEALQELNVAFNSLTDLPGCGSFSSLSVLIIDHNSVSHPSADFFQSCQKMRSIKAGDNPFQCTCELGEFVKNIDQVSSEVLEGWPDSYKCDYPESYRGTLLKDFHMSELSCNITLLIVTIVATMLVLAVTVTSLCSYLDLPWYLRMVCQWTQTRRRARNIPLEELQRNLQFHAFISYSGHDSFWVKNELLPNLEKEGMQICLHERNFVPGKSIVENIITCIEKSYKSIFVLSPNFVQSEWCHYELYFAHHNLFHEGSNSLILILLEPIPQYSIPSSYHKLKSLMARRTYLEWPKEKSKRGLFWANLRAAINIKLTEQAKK
T1 sequence (O60603 21-784): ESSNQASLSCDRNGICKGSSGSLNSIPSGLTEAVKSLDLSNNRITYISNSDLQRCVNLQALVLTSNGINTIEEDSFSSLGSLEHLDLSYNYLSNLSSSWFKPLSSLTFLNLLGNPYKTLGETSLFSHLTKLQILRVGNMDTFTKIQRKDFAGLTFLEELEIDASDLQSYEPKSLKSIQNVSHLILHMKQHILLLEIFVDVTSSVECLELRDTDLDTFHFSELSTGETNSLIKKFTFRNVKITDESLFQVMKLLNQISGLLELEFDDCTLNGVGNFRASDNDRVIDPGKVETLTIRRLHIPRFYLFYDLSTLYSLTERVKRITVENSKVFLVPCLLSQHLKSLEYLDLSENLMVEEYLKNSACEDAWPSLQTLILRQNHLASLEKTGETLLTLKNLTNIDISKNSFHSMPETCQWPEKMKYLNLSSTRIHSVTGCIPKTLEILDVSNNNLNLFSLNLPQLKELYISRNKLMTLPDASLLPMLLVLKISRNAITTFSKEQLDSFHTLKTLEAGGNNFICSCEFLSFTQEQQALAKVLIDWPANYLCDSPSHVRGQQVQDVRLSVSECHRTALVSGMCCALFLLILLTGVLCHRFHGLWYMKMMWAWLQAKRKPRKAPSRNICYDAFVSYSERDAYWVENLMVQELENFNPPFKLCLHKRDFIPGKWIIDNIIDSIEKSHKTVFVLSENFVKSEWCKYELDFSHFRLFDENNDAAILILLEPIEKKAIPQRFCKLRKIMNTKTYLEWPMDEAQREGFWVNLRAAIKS
Experimental: (§2) Cells were seeded onto 96-well plates at 1×10^5 cells per well and stimulated with a Diprovocim (dissolved in DMSO, and final DMSO concentrations (0.2%) were kept constant in all experiments) for 4 h. Mouse TNF, IL-6, or IFN-β, or human TNF in the supernatants were measured by ELISA kits according to the manufacturer's instructions (eBioscience and PBL Assay Science). Pretreatment with 20 μg/ml anti-TLR1, anti-TLR2 or isotype control antibody (eBioscience) was for 1 hour. Unless otherwise indicated, mouse cells were from wild type C57BL/6J mice.

[3] = test system: B16-OVA and B16F10 tumor cells; assay: Re-challenge of tumor-free survivors with B16-OVA and B16 cells; format: in vivo, mouse; details: survivors of Diprovocim+OVA plus anti-PD-L1, no further therapy
[4] = test system: mouse BMDC; assay: IL-6 production by mouse BMDC (ELISA); format: cell-based; details: 4 hours
Experimental: as §1, §2

[5] = test system: OVA peptide-pulsed target cells; assay: In vivo CTL killing assay; design: species or system mouse; details: Tlr1−/− or Tlr2−/− mice
[6] = test system: C57BL/6J mice; assay: Immunization with OVA and measurement of antibody response; format: in vivo, mouse
Experimental: EndoFit ovalbumin (OVA) with 98% purity minimum (SDS-PAGE) and endotoxin levels <1 EU/mg was purchased from Invivogen. Mice (4 mice per group) were immunized i.m. with 100 μg OVA mixed with vehicle (DMSO:Tween 80:saline=1:1:8), with 10 mg/kg Diprovocim, or with 2 mg/kg Alum (Alhydrogel adjuvant 2%, Invivogen). After 14 days, serum titers of OVA-specific IgG, IgG1, or IgG2b (SouthernBiotech) were measured by ELISA.

[7] = test system: mouse TLR1/TLR2 heterodimer; assay: TNF induction in peritoneal macrophages from mice deficient in TLR signaling components; format: cell-based; details: 500 nM, 4 hours, vs C57BL/6J cells
Excerpt: (§3) C57BL/6J, Tlr2^−/−, Myd88^−/− and OT-I mice were purchased from The Jackson Laboratory. Ly96^−/− (MD-2^−/−) mice were from RIKEN BRC. Tlr4^1ps3/lps3, Tlr6^int/int, Tlr7^rsql/rsql, Tirapt^tor/tor, Ticam1^Lps2/Lps2, Ticam1^Lps2/Lps2/Irak4^otiose/otiose mice were generated on a pure C57BL/6J background by ENU mutagenesis and are described at http://mutagenetix.utsouthwestern.edu.
(§4) Tlr1^−/− mice were created by CRISPR/Cas 9 gene targeting. Female C57BL/6J mice were superovulated by injection of 6.5 U pregnant mare serum gonadotropin (PMSG; Millipore), followed by injection of 6.5 U human chorionic gonadotropin (hCG; Sigma-Aldrich) 48 hours later. The superovulated mice were subsequently mated overnight with C57BL/6J male mice. The following day, fertilized eggs were collected from the oviducts and in vitro-transcribed Cas9 mRNA (50 ng/μl) and Tlr1 small base-pairing guide RNA (50 ng/μl; 5′-[…]-3′; SEQ ID NO: XX) were injected into the cytoplasm or pronucleus of the embryos. […]
(§5) Cells were seeded onto 96-well plates at 1×10^5 cells per well and stimulated with a Diprovocim (dissolved in DMSO, and final DMSO concentrations (0.2%) were kept constant in all experiments) for 4 h. Mouse TNF, IL-6, or IFN-β, or human TNF in the supernatants were measured by ELISA kits according to the manufacturer's instructions (eBioscience and PBL Assay Science). […]

[8] = target: T2, mouse TLR1/TLR2 heterodimer (Mus musculus, UniProt Q9EPQ1+Q9QUN7); assay: as above; format: cell-based; details: 500 nM, 4 hours, vs C57BL/6J cells
T2 construct: endogenous in cells; host or cells: thioglycollate-elicited peritoneal macrophages of C57BL/6J mice (wild type and knockout/mutant genotypes)
T2 sequence (Q9EPQ1 26-795): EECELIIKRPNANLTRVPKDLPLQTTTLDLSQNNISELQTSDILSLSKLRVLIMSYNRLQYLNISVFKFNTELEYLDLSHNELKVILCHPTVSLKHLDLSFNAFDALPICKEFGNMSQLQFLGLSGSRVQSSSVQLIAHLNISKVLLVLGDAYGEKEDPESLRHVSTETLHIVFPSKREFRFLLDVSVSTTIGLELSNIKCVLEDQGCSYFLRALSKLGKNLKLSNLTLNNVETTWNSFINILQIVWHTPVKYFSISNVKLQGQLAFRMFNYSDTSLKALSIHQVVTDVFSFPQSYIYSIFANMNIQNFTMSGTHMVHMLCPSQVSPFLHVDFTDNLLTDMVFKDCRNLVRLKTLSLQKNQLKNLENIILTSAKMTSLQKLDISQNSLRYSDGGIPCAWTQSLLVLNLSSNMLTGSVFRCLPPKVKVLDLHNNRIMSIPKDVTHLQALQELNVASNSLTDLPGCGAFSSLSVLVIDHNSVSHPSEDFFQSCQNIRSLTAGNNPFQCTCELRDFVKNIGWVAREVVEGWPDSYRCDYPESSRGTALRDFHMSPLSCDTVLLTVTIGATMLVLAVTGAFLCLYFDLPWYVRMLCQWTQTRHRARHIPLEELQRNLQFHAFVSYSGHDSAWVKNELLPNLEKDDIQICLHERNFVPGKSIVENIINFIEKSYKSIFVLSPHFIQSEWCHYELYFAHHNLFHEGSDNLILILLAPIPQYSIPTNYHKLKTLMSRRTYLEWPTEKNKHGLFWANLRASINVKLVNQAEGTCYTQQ
T2 sequence (Q9QUN7 25-784): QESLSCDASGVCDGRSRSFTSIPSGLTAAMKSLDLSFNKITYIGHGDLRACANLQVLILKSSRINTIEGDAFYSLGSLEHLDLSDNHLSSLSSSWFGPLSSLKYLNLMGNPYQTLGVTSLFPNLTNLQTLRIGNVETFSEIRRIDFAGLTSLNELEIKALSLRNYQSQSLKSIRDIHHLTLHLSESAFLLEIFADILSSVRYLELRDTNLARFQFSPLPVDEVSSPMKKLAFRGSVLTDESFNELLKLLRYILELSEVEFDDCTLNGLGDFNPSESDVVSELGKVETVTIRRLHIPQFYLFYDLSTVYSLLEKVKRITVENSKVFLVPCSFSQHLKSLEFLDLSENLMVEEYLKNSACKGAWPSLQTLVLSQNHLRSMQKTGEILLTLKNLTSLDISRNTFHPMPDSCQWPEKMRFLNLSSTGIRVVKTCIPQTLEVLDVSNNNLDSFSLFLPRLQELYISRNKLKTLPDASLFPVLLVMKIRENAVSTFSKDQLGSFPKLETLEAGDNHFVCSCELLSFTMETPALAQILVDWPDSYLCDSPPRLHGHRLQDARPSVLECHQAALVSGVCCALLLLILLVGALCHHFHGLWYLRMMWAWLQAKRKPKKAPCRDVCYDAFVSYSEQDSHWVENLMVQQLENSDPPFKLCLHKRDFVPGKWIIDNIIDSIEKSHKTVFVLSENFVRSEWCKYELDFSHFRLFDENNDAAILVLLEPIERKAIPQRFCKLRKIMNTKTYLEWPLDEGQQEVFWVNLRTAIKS
Excerpt: as §3, §4, §5

[9] = test system: MAPK and canonical NF-κB signaling; assay: Western blotting of mouse peritoneal macrophage lysates; format: cell-based; details: mouse peritoneal macrophages, 500 nM
Experimental: Mouse peritoneal macrophages or human THP-1 cells (1×10^6 per well) were stimulated in 12-well plates with a Diprovocim at 500 nM for mouse cells or 5 nM for human cells for the indicated times and lysed directly in sample buffer (Sigma). Cell lysates were separated by SDS-PAGE and transferred to nitrocellulose membranes. Membranes were probed with the following antibodies: phospho-IKKα (Ser176)/IKKβ (Ser177), IκBα, phospho-p38 (Thr180/Tyr182), phospho-JNK (Thr183/Tyr185), phospho-ERK1/2 (Thr202/Tyr204) (Cell Signaling Technology) and β-Actin (Sigma).

[10] = test system: mouse BMDC; assay: TNF production by mouse bone marrow-derived dendritic cells (ELISA); format: cell-based; details: 4 hours, read-out: EC50, dose-dependent TNF production
Experimental: as §1, §2

[11] = test system: B16-OVA melanoma; assay: B16-OVA melanoma, post-tumor treatment (immunization day 3 after tumor inoculation); format: in vivo, mouse; details: post-tumor treatment
Experimental: C57BL/6J mice (n=8 mice per treatment) were injected s.c. with 2×10^5 B16-OVA melanoma cells on day 0. For pre-tumor treatment, mice were immunized i.m. with OVA (100 μg) mixed with vehicle or Diprovocim (10 mg/kg) or alum (2 mg/kg) on the same day prior to tumor injection. Mice received a booster immunization seven days later in which anti-PD-L1 (200 μg) was administered on days 3, 6 and 9 after tumor inoculation by i.p. injection. For post-tumor treatment, initial immunization was on day 3 after tumor inoculation, with a booster seven days later. Anti-PD-L1 (200 μg) was administered on days 3, 6, 9, 12, and 15 after tumor inoculation by i.p. injection. […] P values for tumor volume analysis apply to the final time point as indicated in graphs and were calculated by Student's t test. P values for survival analysis were calculated by Kaplan-Meier analysis. All results are representative of two independent studies.
For post-treatment, 10 mg/kg Diprovocim-1 or 2 mg/kg Alum with OVA (100 μg) was injected i.m. into mice on day 3 after tumor inoculation. Mice received a booster shot seven days after the first immunization. On day 3, 6, 9, 12 and 15 after tumor inoculation, mice were also injected i.p. with 200 μg anti-mPD-L1 in 100 μl saline.
Tumors were measured with a digital caliper (Fisher) and the tumor sizes were calculated using the following formula: volume=0.5×length×width^2. […]

For O=C(N[C@H]1C[C@@H]1c1ccccc1)[C@@H]1CN(C(=O)c2ccc(C(=O)N3C[C@@H](C(=O)N[C@H]4C[C@@H]4c4ccccc4)[C@H](C(=O)N[C@H]4C[C@@H]4c4ccccc4)C3)cc2)C[C@H]1C(=O)N[C@H]1C[C@@H]1c1ccccc1 [Diprovocim-1, (3S,3'S,4S,4'S)-1,1′-Terephthaloylbis(N^3,N^4-bis((1S,2R)-2-phenylcyclo-propyl)pyrrolidine-3,4-dicarboxamide)], the “activation of TNF production compared with Pam3CSK4” value [1] was “more potent and efficacious; also recorded: more potent than Pam3CSK4”, the EC50 ([1]; read-out: EC50, dose-dependent TNF production) was 0.875 nM and the “effect on THP-1 cells (TNF) after TLR1 or TLR2 antibody” value [2] was “significantly reduced”. The “memory response on tumor re-challenge” value [3] was “antigen-specific memory responses that protect the host from relapse of tumor growth”, the IL-6 production [4] was “induced IL-6 production” and the “adjuvant activity in CTL killing in TLR1- and/or TLR2-deficient mice” value [5] was “abrogated”. The “adjuvant activity in antigen-specific antibody production in TLR2-deficient mice” value ([6]; Tlr2−/− mice) was “abrogated”, the “serum OVA-specific IgG compared to OVA plus vehicle” value ([6]; wild type mice, i.m. with 100 μg OVA, Diprovocim 10 mg/kg or alum 2 mg/kg, day 14) was “highly elevated” and the “induction of TNF in TLR1- or TLR2-deficient macrophages” value [7] was “completely absent”. The “activity (TNF) in macrophages from MyD88-, TIRAP-, and IRAK4-deficient cells” value [8] was “dramatically reduced”, the “phosphorylation of signaling proteins and IκBα degradation” value [9] was “induced phosphorylation of IκKα, IKKβ, p38, JNK, and ERK, as well as degradation of IκBα” and the EC50 [10] was 6.7 nM. The “effect on tumor growth, survival rate, and survival time compared with alum” value [11] was “superior to that of alum”.
